Assay results from patent publication US9657035B1, “Method of treating cancer and gold(III) complexes as anti-cancer agents” (KING FAHD UNIVERSITY OF PETROLEUM AND MINERALS, priority 2015, dated 2017).

Columns and labels:
[1] = tested on: ovarian epithelial carcinoma-derived cancer cells A2780; assay: Cell proliferation MTT assay, 72 h; type: cell-based, human; conditions: mean±SEM
Method: (§1) Complexes 1 and 2 were dissolved (10 mM) in DMSO and stored at -80° C. at volumes of 500 μL or aliquots with volumes of 10 μL were taken and stored at -20° C. (used once without refreezing). The compounds were then diluted in RPMI medium immediately before use. Cisplatin was purchased from Mayne Pharma. Culture medium with the same amount of drug-free DMSO was used as a negative control. The classical Hodgkin lymphoma L-540 cell line was obtained from the German Collection of Microorganisms and Cell Cultures (Braunschweig, Germany). Human ovarian epithelial carcinoma-derived cancer cells A2780 and its cisplatin-resistant clone A2780cis were from Sigma, Inc. (St. Louis, Mo., USA). The parent cisplatin-resistant subclone A2780cis was maintained by weekly treatment with 1 μM cisplatin ([…]. Celegato, C. Borghese, M. Mongiat, A. Colombatti, and D. Aldinucci, Clin. Cancer Res. vol. 20, pp. 5496-5506, 2014, incorporated herein by reference in its entirety). Cells were cultured at 37° C. in 5% CO2 in RPMI medium supplemented with 10% heat-inactivated FBS, 0.1% (w/v) L-glutamine and antibiotics (0.2 mg/mL penicillin and streptomycin). For the cell proliferation assay, 4.0×10^3 A2780 and A2780cis cells were seeded in 96-well flat-bottomed microplates in RPMI medium (100 μL) and incubated at 37° C. in a 5% CO2 atmosphere for 24 h (to allow cell adhesion) before drug testing. The medium was then removed and replaced with fresh medium containing the compounds to be tested and cisplatin at increasing concentrations (from 1 to 100 μM) at 37° C. for 72 h. Each treatment was performed in triplicate. Cell proliferation was assayed using the MTT assay. L-540 cells (2.0×10^5/ml) were seeded in 48-well plates and treated with increasing concentrations of complex 1 and complex 2. After 72 hours, the number of viable cells was evaluated by a trypan blue dye exclusion. The IC50 values (i.e., the half maximal inhibitory concentration, representing the concentration of a substance required for 50% inhibition in vitro) were calculated using CalcuSyn software (Biosoft, Ferguson, Mo., USA) (T. C. Chou, and P. Talalay, Adv. Enzyme Regul. vol. 22, pp. 27-55, 1984, incorporated herein by reference in its entirety). The results were presented as the mean±SEM of three replicate wells from three independent experiments. The cells were imaged under an inverted microscope (Eclipse TS/100, Nikon) with a photomicrographic system (DS Camera Control Unit DS-L2). Phase contrast micrographs were taken at a magnification of 4× (for L-540 cells) and 10× (for A2780 and A2780cis cells).

[2] = tested on: cisplatin-resistant clone A2780cis; assay: Cell proliferation MTT assay, 72 h; type: cell-based, human; conditions: for IC50: A2780cis cells, 72 h, MTT, mean±SEM; for Fold resistance A2780cis/A2780 ratio: ratio of IC50 A2780cis to A2780
Method: as §1

[3] = tested on: classical Hodgkin lymphoma L-540 cell line; assay: In vitro cytotoxicity, trypan blue dye exclusion, 72 h; type: cell-based, human; conditions: L-540 cells; for IC50: trypan blue assay
Method: Complexes 1 and 2 were dissolved (10 mM) in DMSO and stored at −80° C. at volumes of 500 μL or aliquots with volumes of 10 μL were taken and stored at −20° C. (used once without refreezing). The compounds were then diluted in RPMI medium immediately before use. Cisplatin was purchased from Mayne Pharma. Culture medium with the same amount of drug-free DMSO was used as a negative control.
The classical Hodgkin lymphoma L-540 cell line was obtained from the German Collection of Microorganisms and Cell Cultures (Braunschweig, Germany). Human ovarian epithelial carcinoma-derived cancer cells A2780 and its cisplatin-resistant clone A2780cis were from Sigma, Inc. (St. Louis, Mo., USA). The parent cisplatin-resistant subclone A2780cis was maintained by weekly treatment with 1 μM cisplatin (N. Casagrande, M. Celegato, C. Borghese, M. Mongiat, A. Colombatti, and D. Aldinucci, Clin. Cancer Res. vol. 20, pp. 5496-5506, 2014, incorporated herein by reference in its entirety). Cells were cultured at 37° C. in 5% CO2 in RPMI medium supplemented with 10% heat-inactivated FBS, 0.1% (w/v) L-glutamine and antibiotics (0.2 mg/mL penicillin and streptomycin).
For the cell proliferation assay, 4.0×10^3 A2780 and A2780cis cells were seeded in 96-well flat-bottomed microplates in RPMI medium (100 μL) and incubated at 37° C. in a 5% CO2 atmosphere for 24 h (to allow cell adhesion) before drug testing. The medium was then removed and replaced with fresh medium containing the compounds to be tested and cisplatin at increasing concentrations (from 1 to 100 μM) at 37° C. for 72 h. Each treatment was performed in triplicate. Cell proliferation was assayed using the MTT assay. L-540 cells (2.0×10^5/ml) were seeded in 48-well plates and treated with increasing concentrations of complex 1 and complex 2. After 72 hours, the number of viable cells was evaluated by a trypan blue dye exclusion. […]

[4] = Kinetics of substitution reaction of gold(III) complexes with glutathione (UV-vis, 297 nm); type: physicochemical; conditions: for second-order rate constant k for the reaction with GSH: at 298K, 20 mM NaCl, 297 nm; for ΔH^† activation enthalpy, reaction with GSH / ΔS^† activation entropy, reaction with GSH: from Eyring plots
Method: All kinetics measurements were made using a UV-vis spectrophotometer (Agilent Technologies, Cary 100 UV-Vis). Scanning kinetic mode was used to investigate the change in the electronic spectra for gold(III) complexes upon interaction with GSH to determine the effective wavelength for the reactions. Then, the kinetic mode was used to monitor the reaction progress at the selected wavelength. A solution containing 0.2 mM gold(III) complexes was prepared in water, and 40 mM sodium chloride was added to improve the stability of the mononuclear-gold(III) complexes by preventing hydrolysis of the chlorides (A. Djeković, B. Petrović, Z. D. Bugarcić, R. Puchta, and R. van Eldik, Dalton Trans., vol. 41, no. 13, pp. 3633-41, 2012, incorporated herein by reference in its entirety). A series of GSH solutions was also prepared. Equal volumes of gold(III) complex solution and GSH solution were mixed, and the spectral changes recorded using the scanning kinetic mode in the range from 200 nm to 350 nm. Then, the kinetic mode was used to follow the reaction at three different temperatures. The reaction between the gold(III)-diamine complexes and the GSH ligand to form gold(III)-complexes can be illustrated in following equation: […]
The rate (k) of the described reactions can be calculated from the slope of the linear plot of kobs versus GSH concentration according to eqn (1), where the rate of the reverse reaction (k−1) is obtained from the intercept of the straight line. kobs=k[GSH]+k−1[Cl] Eqn (1)
Using Microsoft Excel, the rate constants and activation parameters were calculated from Eyring plots: […]
The kinetics of the substitution reaction between the synthesized anticancer gold(III) complexes 1 and 2 with tripeptide glutathione were investigated spectrophotometrically by monitoring the spectral changes of the gold(III) complexes in solution with excess of GSH. […] Equal volumes of the gold(III) complexes and GSH were kept until thermal equilibration was achieved and then mixed directly inside a UV cell. The changes in the absorption at a selected wavelength (297 nm) under pseudo-first order conditions as functions of the glutathione concentration and temperature were collected. The […] rate constant (k) was obtained from the linear plot of kobs versus the total GSH concentration (1). NaCl was added in excess to avoid the hydrolysis of mononuclear-gold(III) diamine chloride, but this was not found to be effective for complex 2 (FIG. 2).

| Compound | IC50 [1] [µM] | IC50 [2] [µM] | Fold resistance A2780cis/A2780 ratio [2] | Fold resistance A2780cis/A2780 ratio ([2]; listed as cisplatin) | IC50 [3] [µM] | Ea activation energy, reaction with GSH [4] [kcal/mol] | second-order rate constant k for the reaction with GSH [4] [M⁻¹ s⁻¹] | ΔH^† activation enthalpy, reaction with GSH [4] [kcal/mol] | ΔS^† activation entropy, reaction with GSH [4] [JK^−1mol^−1] | fold more active than complex 1 (L-540 IC50) [3] [fold] | IC50 ([1]; listed as 2) [µM] | IC50 ([1]; listed as (2)) [µM] |
| --- | --- | --- | --- | --- | --- | --- | --- | --- | --- | --- | --- | --- |
| N.N.[Cl][Pt][Cl] [Cisplatin, reference compound] | 1.8 | 17.6 | 9.77 | 9.7 |  |  |  |  |  |  |  |  |
| NC1CCCCC1N.[Au+3].[Cl-].[Cl-].[Cl-] [Complex 1, 1(R),2(R)-[(DACH)AuCl2]Cl] | 15.7 | 61.3 | 3.90 |  | 70.4 | 7.65 | 1.14 | 7.17 | −137 |  |  |  |
| NC1CCCCC1N.NC1CCCCC1N.[Au+3].[Cl-].[Cl-].[Cl-] [Complex 2, 1(R),2(R)-[(DACH)2Au]Cl3] |  | 31.1 | 4.45 |  | 9.8 | 4.54 | 0.31 | 4.06 | −189 | 7 | 6.98 | 6.9 ± 0.6 |
